# Results taken from patent publication US20230416233A1, “(AZA)QUINOLINE 4-AMINES DERIVATIVES AS P2X3 INHIBITORS” (CHIESI FARMACEUTICI S.P.A., priority 2020, published 2023).
# Like-named read-outs stand apart in the source and are kept apart here.
# Legend:
# h P2X3 = biological target: T1, h P2X3 (Homo sapiens, UniProt P56373); assay: In vitro electrophysiology assay for P2X3 (Sophion Qube automated whole-cell patch clamp); assay type: cell-based; conditions: for h P2X3 (pIC50 range of activity): Table 3
# T1 sequence (P56373 1-397): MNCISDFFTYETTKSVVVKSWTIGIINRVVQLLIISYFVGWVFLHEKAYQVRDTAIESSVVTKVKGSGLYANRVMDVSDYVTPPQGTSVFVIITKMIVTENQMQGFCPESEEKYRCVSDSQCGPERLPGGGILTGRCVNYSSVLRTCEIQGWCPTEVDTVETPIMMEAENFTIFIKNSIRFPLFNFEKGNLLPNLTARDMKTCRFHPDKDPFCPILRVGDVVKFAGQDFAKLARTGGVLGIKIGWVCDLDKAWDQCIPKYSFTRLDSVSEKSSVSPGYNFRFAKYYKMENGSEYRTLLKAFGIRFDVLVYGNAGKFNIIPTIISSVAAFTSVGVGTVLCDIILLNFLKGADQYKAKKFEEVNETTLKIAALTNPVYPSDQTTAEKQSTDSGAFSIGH
# Procedure: In Vitro Electrophysiology Assay for P2X3
# (§1) Cells expressing P2X3 receptors were grown according to standard practice and maintained at 37° C. in a 5% humidified CO2 atmosphere. The cells were seeded into T175 flask 2 days prior to the day of the assay and dissociated from the flasks using TrypLE when grown to confluence of 80-90%. The dissociated cells were resuspended in serum free media at a cell density of 3×10^6 cells/ml and loaded onto the Sophion Qube automated patch-clamp system. The extracellular assay buffer contained 145 mM NaCl, 4 mM KCl, 2 mM CaCl2, 1 mM MgCl2, 10 mM HEPES, and 10 mM glucose at pH 7.4. The intracellular assay solution contained 140 mM CsF, 10 mM NaCl, 10 mM EGTA, 10 mM HEPES at pH 7.2. Agonist stock solutions were prepared in H2O and diluted in bath solution prior to use. All antagonists were prepared as 10 mM stock solutions in DMSO and diluted in bath solution prior to use. All experiments were performed under the whole-cell patch clamp configuration at room temperature with 384 individual cells being voltage clamped at −60 mV simultaneously on the Sophion Qube instrument. Two baseline responses were established with the application of α,β-MeATP (800 nM), with the subsequent agonist applications being washed out using extracellular assay buffer containing 0.5 U/ml apyrase. Following the second agonist application, antagonist was incubated in the absence of α,β-MeATP for 10 minutes. After antagonist preincubation, 800 nM α,β-MeATP and antagonist were co-administered to determine the inhibitory effect of the antagonist. One concentration of an antagonist was assessed against a single cell, with different concentrations of the antagonist applied to other cells on the 384 recording substrate. The control P2X3 current amplitude was taken from the peak current amplitude from the second agonist response prior to preincubation with antagonist. The peak P2X3 current amplitude in the presence of antagonist was used to calculate the inhibitory effect at each concentration of the antagonist according to the following equation:
# Percentage inhibition of P2X3=(P2X3 control peak amplitude−P2X3 antagonist peak amplitude)/P2X3 control peak amplitude)*100
# Concentration-response curves were constructed from ten different concentrations with each concentration of antagonist tested on at least two individual cells. The concentration of the antagonist to inhibit P2X3 current by 50% (IC50) was determined by fitting the data with the following equation:
# Y=a+[(b−a)/(1+10^((log c−x)d)]
# Where ‘a’ is minimum response, ‘b’ is maximum response, ‘c’ is IC50 and ‘d’ is Hill slope.
# The results for individual compounds are provided below in Table 2 and are expressed as range of activity.
# h P2X2/3 = biological target: T2, h P2X2/3 (Homo sapiens, UniProt P56373+Q9UBL9); assay: In vitro electrophysiology assay for P2X2/3 (same protocol as the P2X3 assay, 10 μM ATP as agonist); assay type: cell-based; conditions: Table 3; agonist 10 μM ATP, mean current amplitude seven seconds after agonist; read-out: h P2X2/3 (pIC50 range of activity) (converted)
# T2 construct: host or cells: cells not described; same protocol as the P2X3 assay
# T2 sequence (P56373 1-397): T1 sequence (P56373 1-397)
# T2 sequence (Q9UBL9 1-471): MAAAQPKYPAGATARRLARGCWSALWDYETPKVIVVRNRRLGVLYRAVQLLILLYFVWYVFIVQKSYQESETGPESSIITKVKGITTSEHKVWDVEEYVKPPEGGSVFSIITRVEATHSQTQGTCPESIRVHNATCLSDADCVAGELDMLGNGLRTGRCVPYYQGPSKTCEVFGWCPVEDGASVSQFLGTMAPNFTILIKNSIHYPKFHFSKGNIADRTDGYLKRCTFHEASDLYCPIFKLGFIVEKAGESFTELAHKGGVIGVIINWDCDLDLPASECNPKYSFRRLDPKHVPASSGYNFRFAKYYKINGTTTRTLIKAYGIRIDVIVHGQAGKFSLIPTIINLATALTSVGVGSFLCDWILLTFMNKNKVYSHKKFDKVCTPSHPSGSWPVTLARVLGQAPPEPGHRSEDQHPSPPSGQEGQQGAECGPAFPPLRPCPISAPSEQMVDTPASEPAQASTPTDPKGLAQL
# Procedure: as §1, with “The peak P2X3 current amplitude in the presence of antagonist was used to calculate the inhibitory effect at each concentration of the antagonist according to the following equation:” left out
# The same assay protocol was used for the P2X2/3 assay as the P2X3 assay with two modifications: 1) 10 μM ATP was used as the agonist; and 2) the mean current amplitude was measured seven seconds after the application of agonist.
# [1] = Table 2, agonist 800 nM α,β-MeATP, 10 min antagonist preincubation, peak current, read-out: h P2X3 (pIC50 range of activity) (converted)
# [2] = agonist 800 nM α,β-MeATP, peak current
IC50 (h P2X3; [1]) [µM],IC50 (h P2X2/3) [µM],"IC50 (h P2X3; in vitro assay as described for P2X3, read-out: activity on receptor P2X3 expressed as pIC50 (converted)) [µM]",Structure (SMILES),h P2X3 (pIC50 range of activity) (h P2X3; [2])
< 0.316,,,"Cc1ccc([C@@H](C)Nc2cnnc3ccc(-c4ccc(F)cc4)cc23)nn1 [Example 13, 6-(4-Fluorophenyl)-N-[(1R)-1-(6-methylpyridazin-3-yl)ethyl]cinnolin-4-amine]",
,,> 3.16,"Cc1ccc(CNc2nccc3ccc(-c4ccc(F)cc4)cc23)nn1 [comparative Example A, reference compound]",
< 0.316,,,"Cc1ccc(CNc2cnnc3ccc(-c4ccc(F)cc4)cc23)nn1 [Example 1, 6-(4-Fluorophenyl)-N-((6-methylpyridazin-3-yl)methyl)cinnolin-4-amine]",
< 0.316,,,"Cc1ccc(-c2ccc3nncc(NCc4ccc(C)nn4)c3c2)nc1 [Example 5, N-((6-methylpyridazin-3-yl)methyl)-6-(5-methylpyridin-2-yl)cinnolin-4-amine]",
< 0.316,0.316 to 3.16,,"C[C@@H](Nc1cnnc2ccc(-c3ccc(F)cc3)cc12)c1cnc(C(F)(F)F)nc1 [Example 2, 6-(4-Fluorophenyl)-N-((1R)-1-(2-(trifluoromethyl)pyrimidin-5-yl)ethyl)cinnolin-4-amine]",+++ (+++: pIC50 h P2X3 or h P2X2/3 > 6.5)
< 0.316,,,"COc1cc(-c2ccc(F)cc2)cc2c(N[C@H](C)c3ccc(C)nn3)cnnc12 [Example 6, (R)-6-(4-fluorophenyl)-8-methoxy-N-(1-(6-methylpyridazin-3-yl)ethyl)cinnolin-4-amine]",
< 0.316,,,"Cc1ccc(CNc2ccnc3ccc(-c4ccc(F)cc4)cc23)nn1 [Example 11, 6-(4-Fluorophenyl)-N-((6-methylpyridazin-3-yl)methyl)quinolin-4-amine]",

# More lines, now with the values behind:
Structure (SMILES),IC50 (h P2X3; [1]) [µM],IC50 (h P2X2/3) [µM],"IC50 (h P2X3; in vitro assay as described for P2X3, read-out: activity on receptor P2X3 expressed as pIC50 (converted)) [µM]",h P2X3 (pIC50 range of activity) (h P2X3; [2])
"Cc1cnc(-c2ccc3nncc(N[C@H](C)c4cnc(C(F)(F)F)nc4)c3c2)s1 [Example 3, 6-(5-Methylthiazol-2-yl)-N-((1R)-1-(2-(trifluoromethyl)pyrimidin-5-yl)ethyl)cinnolin-4-amine]",< 0.316,,,
"Cc1ccc(-c2ccc3nccc(NCc4ccc(C)nn4)c3c2)nc1 [Example 10, N-((6-methylpyridazin-3-yl)methyl)-6-(5-methylpyridin-2-yl)quinolin-4-amine]",< 0.316,,,
"C[C@@H](Nc1ccnc2ccc(-c3ccc(F)cc3)cc12)c1cnc(C(F)(F)F)nc1 [Example 12, (R)-6-(4-fluorophenyl)-N-(1-(2-(trifluoromethyl)pyrimidin-5-yl)ethyl)quinolin-4-amine]",0.316 to 3.16,,,
"Cc1ccc(-c2ccc3nncc(N[C@H](C)c4cnc(C(F)(F)F)nc4)c3c2)nc1 [Example 4, 6-(5-Methylpyridin-2-yl)-N-((1R)-1-(2-(trifluoromethyl)pyrimidin-5-yl)ethyl)cinnolin-4-amine]",< 0.316,0.316 to 3.16,,+++ (+++: pIC50 h P2X3 or h P2X2/3 > 6.5)
"Cc1ccc(-c2ccc3nccc(N[C@H](C)c4cnc(C(F)(F)F)nc4)c3c2)nc1 [Example 9, (R)-6-(5-methylpyridin-2-yl)-N-(1-(2-(trifluoromethyl)pyrimidin-5-yl)ethyl) quinolin-4-amine]",< 0.316,,,
"COc1cc(-c2ccc(F)cc2)cc2c(N[C@H](C)c3cnc(C(F)(F)F)nc3)cnnc12 [Example 7, (R)-6-(4-fluorophenyl)-8-methoxy-N-(1-(2-(trifluoromethyl)pyrimidin-5-yl)ethyl)cinnolin-4-amine]",< 0.316,,,
"COc1cc(-c2ncc(C)cn2)cc2c(N[C@H](C)c3ccc(C)nn3)cnnc12 [Example 8, (R)-8-methoxy-N-(1-(6-methylpyridazin-3-yl)ethyl)-6-(5-methylpyrimidin-2-yl)cinnolin-4-amine]",< 0.316,3.16 to 31.6,,+++ (+++: pIC50 h P2X3 or h P2X2/3 > 6.5)
